The values below come from patent US20210387983A1, “CRYSTALLINE ALK5 INHIBITORS AND USES THEREOF” (THERAVANCE BIOPHARMA R&D IP, LLC, priority 2020, published 2021).

The subject of data set [1] is monocrotaline (MCT) model of severe pulmonary hypertension. As to the kind of experiment: Efficacy study in monocrotaline model of severe pulmonary hypertension. It is filed as in vivo, Sprague-Dawley rats. The note with it: MCT 60 mg/kg s.c.; oral aspiration, 2-weeks of treatment. On the procedure:
Male Sprague-Dawley rats are tagged, weighed, and randomly divided into control and MCT-treated groups. The rats in the MCT-treated group are administered a single dose of MCT (60 mg/kg, s.c.), then treated with either (1) vehicle control; (2) sildenafil (30 mg/kg, p.o., b.i.d.); or (3) the compound of Formula I at an appropriate amount and frequency (formulated in 3% glycerol in PBS; pH=4) via oral aspiration.
Following 2-weeks of treatment, the animals are anesthetized with ketamine/xylazine for terminal monitoring of pulmonary and systemic arterial pressures along with heart rate. The lungs of each animal are then harvested for histologic analysis.

The nature of data set [2]: In vitro human liver microsome intrinsic clearance (HLM Clint). It counts as in vitro ADME. Particulars: liver microsomes, pH 7.4, 0.1 μM test compound, 0.1 mg/mL protein, 1 mM NADPH, 37° C. As to the method:
Liver microsomes were used for in vitro determination of hepatic clearance of the compound of Formula I. A microsomal incubation cofactor solution was prepared with 100 mM potassium phosphate buffered to pH 7.4 (BD Biosciences, Woburn, Mass.) supplemented with 2 mM NADPH (Sigma-Aldrich, St. Louis, Mo.). 10 mM DMSO stocks of test compound were diluted and spiked into the cofactor solution to yield a 0.2 μM concentration (0.02% v/v DMSO). Aliquots of frozen human liver microsomes (Bioreclamation IVT, Baltimore Md.) were thawed and diluted into 100 mM potassium phosphate buffer to yield microsomal protein concentrations of 0.2 mg/mL. Cofactor/drug and microsomal solutions were pre-warmed separately for 4 minutes in a water bath held at 37° C. Incubations (n=1) were started by the combination of equal volumes of cofactor/drug solution with microsomal solution. The final concentration of test compound was 0.1 μM with a final protein concentration of 0.1 mg/mL and final NADPH concentration of 1 mM. Samples were collected at times 0, 3, 8, 15, 30, and 45 minutes to monitor the disappearance of test compound. At each time point, 50 μL of incubation sample was removed and spiked into 25 μL of water plus 3% formic acid plus Internal Standard for reaction termination. Samples were then injected onto an AB Sciex API 4000 triple quadrupole mass spectrometer for quantitation by LC-MS/MS. […]
A general note: Liver microsomes are vesicles of endoplasmic reticulum, rich in cytochrome P450 enzymes.

The subject of data set [3] is DSS-induced intestinal fibrosis. As to the kind of experiment: Prophylactic study in murine DSS-induced intestinal fibrosis model. It counts as in vivo, C57BL/6J mice. The note with it: oral gavage starting on day one of DSS administration; sacrifice 9 weeks. As to the method: The compound of Formula I is expected to slow, halt or reverse the progression of intestinal fibrosis in a murine colitis model. Six to 8-week old male C57BL/6J mice are tagged and weighed. The drinking water of the animals is treated with 2.5% dextran sulfate sodium (DSS) for 7 days to induce acute colitis, followed by 2 days of normal drinking water. Three, 3-week cycles of 2.5% DSS treatment (1 week of 2.5% DSS in water; 2 weeks of normal water) are then completed to induce intestinal fibrosis. Starting on day one of DSS administration, mice are treated with either vehicle control or the compound of Formula I at an appropriate amount and frequency via oral gavage (e.g., once daily). The animals are sacrificed 9 weeks after the first DSS administration, then distal, mid and proximal sections of the colon harvested for histologic analysis, RNA extraction and cytokine measurement.

Data set [4] concerns TGF-β-stimulated SMAD3 phosphorylation in BEAS-2B cells. In words: Cellular ALK5 potency assay, inhibition of TGF-β stimulated pSMAD3 formation in BEAS-2B cells. It counts as cell-based. Particulars: Homo sapiens, 1 hour compound incubation, TGF-β 10 ng/mL for 30 minutes, read-out: pIC50 value, inhibition of TGF-β-stimulated pSMAD3 formation (converted). As to the method: The potency of the compound of Formula I for inhibition of TGF-β-stimulated SMAD3 phosphorylation was measured in BEAS-2B cells, a human lung epithelial cell line. TGF-β signals through activin receptor-like kinase 5 (ALK5) immediately prior to SMAD3 phosphorylation.
BEAS-2B cells were grown using 50% DMEM (Life Technologies) and 50% F-12 (Life Technologies) media, supplemented with 10% Fetal Bovine Serum (ATCC), 25 mM HEPES (Life Technologies), and 1× Pen-Strep (Life Technologies). Cells were cultured in a humidified incubator set at 37° C., 5% CO2, and trypsonized using 0.25% Trypsin with 0.5% polyvinylpyrrolidone (PVP).
For the assay, BEAS-2B cells were seeded at 7,500 cells/well (25 μL/well) in a 384-well plate and cultured overnight. Before dosing, growth media was aspirated and the wells were rinsed with HBSS Buffer (HBSS with Calcium and Magnesium, Life Technologies) supplemented with 25 mM HEPES (Life Technologies) and 1% Bovine Serum Albumin (Roche). […] AlphaLISA Acceptor and Detector beads (PerkinElmer) were added 2 hours apart, then incubated overnight to be read the next day. The potency of the compound was determined through analysis of dose-dependent quantified changes in pSMAD3 signal from baseline (non-compound treated TGF-β stimulated cells). Data are expressed as pIC50 (negative decadic logarithm IC50) values.

Take `C[C@@H]1CN(CCNc2cnc3ccc(-c4nc[nH]c4-c4cc(Cl)ccc4F)nc3c2)C[C@H](C)N1` [compound of Formula I, 6-(5-(5-chloro-2-fluorophenyl)-1H-imidazol-4-yl)-N-(2-((3S,5R)-3,5-dimethylpiperazin-1-yl)ethyl)-1,5-naphthyridin-3-amine]: in data set [1], the “progression of pulmonary hypertension” value was “slow, halt or reverse the progression of pulmonary hypertension”. Besides, the microsomal CLint (as a rule, the capacity of the preparation to metabolise the compound, expressed as a volume cleared per time) at 0.1 μM in data set [2] is above 250 µL/min/mg. Also, in data set [3], the intestinal fibrosis entry was “slow or prevent intestinal fibrosis”. Also, in data set [4], the IC50 is 25.1 to 158 nM.
